Reference: ChEMBL document CHEMBL5257042, “Highly Oxidized Ecdysteroids from a Commercial Cyanotis arachnoidea Root Extract as Potent Blood-Brain Barrier Protective Agents” (J Nat Prod, 2023)
Calls of active or inactive are those of the source. The calls are words filed in the database; no cut-off is given here.

What was measured:
hCMEC/D3 [1] = assay: Cytoprotective activity against tBHP-induced oxidative damage in human CMEC/D3 cells at 1 uM incubated for 4 hrs by RTCA assay; format: functional, cell-based
[2] = Cytotoxicity against human CMEC/D3 cells assessed as decrease in cell impedance at 10 uM incubated for 4 hrs by RTCA assay; format: toxicity, cell-based; conditions: hcmec/d3, 4 h
hCMEC/D3 [3] = assay: Cytoprotective activity against IL-1beta-induced cellular damage in human CMEC/D3 cells assessed as increase in cell impedance at 1 uM incubated for 4 hrs by RTCA assay; format: functional, cell-based
hCMEC/D3 [4] = assay: Cytoprotective activity against TNFalpha-induced cellular damage in human CMEC/D3 cells assessed as increase in cell impedance at 1 uM incubated for 4 hrs by RTCA assay; format: functional, cell-based
[5] = Cytotoxicity against human CMEC/D3 cells assessed as increase in cell impedance at 1 uM incubated for 4 hrs by RTCA assay; format: toxicity, cell-based; conditions: hcmec/d3, 4 h

| SMILES | Activity (hCMEC/D3 [1]) | Activity [2] | Activity (hCMEC/D3 [3]) | Activity (hCMEC/D3 [4]) | Activity [5] |
| --- | --- | --- | --- | --- | --- |
| CC(C)(O)CC[C@H]1O[C@H]2C(=O)[C@@H]3C4=C(CC[C@]3(C)[C@H]2[C@@]1(C)O)[C@@]1(C)C[C@H](O)[C@H](O)CC1=C(O)C4=O | Active | Toxic | Active | Active | Non-Toxic |
| CC(C)(O)CCC(=O)[C@](C)(O)[C@H]1CC(=O)C2=C3C(=O)C(O)=C4C[C@@H](O)[C@@H](O)C[C@]4(C)C3=CC[C@@]21C | Active | Non-Toxic | Active | Active | Non-Toxic |
| CC(C)(O)CC[C@@H](O)[C@](C)(O)[C@H]1C[C@H](O)C2=C3C(=O)C(O)=C4C[C@@H](O)[C@@H](O)C[C@]4(C)[C@@]3(O)CC[C@@]21C | Active | Non-Toxic | Active | Active | Non-Toxic |
